Data: US8354400B2, “Benzoxazole compounds and methods of use” (Eisai R&D Co., Ltd., priority 2008, dated 2013)
Like-named read-outs stand apart in the source and are kept apart here.

How the values were obtained:
Type in all cases: cell-based
[1] = system: mouse spleen IL-6 production in response to Oligo CpG 1668; assay: Splenocyte CpG 1668 assay (IL-6 ELISA); settings: mouse splenocytes, Oligo CpG 1668, 72 hrs
Protocol: (2) Splenocyte CpG 1668 Assay: Some of the compounds tested in the primary assay were also assayed for suppression of mouse spleen IL-6 production in response to stimulation with Oligo CpG 1668, a synthetic phosphorothioate oligonucleotide (Krieg et al. Nature. 374:546-9 (1995)), with nucleotide sequence [NT] (SEQ ID NO:2). Each compound was added to dissociated splenocytes before addition of stimulatory oligonucleotide. Cells were stimulated in culture for 72 hrs and the supernatant was removed for ELISA analysis of IL-6 level. Here the IC50 is defined as the concentration of compound that suppresses cytokine production to 50% of that observed in the absence of compound, i.e., full stimulation.

human TLR9 = target: T1, human TLR9 (Homo sapiens, UniProt Q9NR96); assay: Primary assay: HEK/TLR9 activation (NF-kB luciferase reporter, Oligo CpG 2006 stimulation)
T1 construct: expressed in transfected cells; host or cells: HEK293 (ATCC No. CRP-1573 [sic])
T1 sequence (Q9NR96 26-1032): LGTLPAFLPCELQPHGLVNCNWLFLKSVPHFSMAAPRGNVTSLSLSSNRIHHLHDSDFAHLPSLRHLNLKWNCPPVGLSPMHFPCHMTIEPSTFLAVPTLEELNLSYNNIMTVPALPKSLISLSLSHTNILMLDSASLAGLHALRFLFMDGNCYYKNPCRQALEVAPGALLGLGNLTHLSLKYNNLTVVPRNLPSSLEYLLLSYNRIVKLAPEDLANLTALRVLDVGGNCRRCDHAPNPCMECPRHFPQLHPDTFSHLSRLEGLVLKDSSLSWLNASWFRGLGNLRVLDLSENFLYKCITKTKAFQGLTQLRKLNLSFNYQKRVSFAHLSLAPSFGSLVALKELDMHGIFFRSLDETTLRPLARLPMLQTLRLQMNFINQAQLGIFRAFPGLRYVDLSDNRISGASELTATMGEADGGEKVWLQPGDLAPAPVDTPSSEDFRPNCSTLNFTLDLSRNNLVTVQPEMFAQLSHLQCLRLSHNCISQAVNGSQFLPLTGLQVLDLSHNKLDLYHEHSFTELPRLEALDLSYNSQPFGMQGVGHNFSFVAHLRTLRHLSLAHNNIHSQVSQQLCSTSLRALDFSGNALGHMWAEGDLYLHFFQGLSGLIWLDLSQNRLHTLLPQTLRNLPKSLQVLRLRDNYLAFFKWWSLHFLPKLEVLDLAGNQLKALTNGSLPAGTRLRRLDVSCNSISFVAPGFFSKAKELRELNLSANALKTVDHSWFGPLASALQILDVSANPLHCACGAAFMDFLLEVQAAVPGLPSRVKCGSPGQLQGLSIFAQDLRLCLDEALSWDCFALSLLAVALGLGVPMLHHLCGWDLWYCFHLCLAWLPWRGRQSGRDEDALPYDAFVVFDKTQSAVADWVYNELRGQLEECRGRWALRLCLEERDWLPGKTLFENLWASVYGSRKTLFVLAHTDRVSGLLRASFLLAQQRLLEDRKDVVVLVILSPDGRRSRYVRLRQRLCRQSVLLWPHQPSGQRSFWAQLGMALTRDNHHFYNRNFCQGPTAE
Source text: A. Primary Assay. The primary assay involved transfecting human embryonic kidney epithelial (HEK) cells with TLR9. More specifically, HEK293 […] cells (ATCC No. CRP-1573, American Type Culture Collection, Manassas, Va.) were transfected with pcDNA3.1D/V5-His-TOPO® plasmid (Invitrogen, Carlsbad, Calif.) encoding human TLR9 (directly inserted as a Tag polymerase-amplified PCR product) and firefly luciferase under the control of three NF-kB binding sites contained in the E-selectin-1 promoter, which was cloned into a pGL3-Enhancer Vector (Promega Corp, Madison, Wis.). Each compound was added to cells 30 min. before stimulation with Oligo CpG 2006, a synthetic phosphorothioate oligonucleotide (Hartmann et al., J Immunol. 164:1617-24 (2000)), with nucleotide sequence 5′-TCGTCGTTTTGTCGTTTTGTCGTT-3′ (SEQ ID NO:1). The cells were incubated overnight at 37° C. The luciferase substrate Steady-Glo® (Promega) was added to the wells, and luminescence was measured to determine the extent of TLR9-driven gene activation. The luminescence data was used to calculate an IC50 for each sample. The IC50 is defined as the concentration of compound that suppresses the luminescence to 50% of that observed in the absence of compound, in other words, with full stimulation.

human TLR7 = target: T2, human TLR7 (Homo sapiens, UniProt Q9NYK1); assay: HEK/TLR7 activation assay (R848 stimulation); settings: HEK cells transfected with human TLR7
T2 construct: expressed in transfected cells; host or cells: HEK cell line (HEK293, as in the primary assay)
T2 sequence (Q9NYK1 27-1049): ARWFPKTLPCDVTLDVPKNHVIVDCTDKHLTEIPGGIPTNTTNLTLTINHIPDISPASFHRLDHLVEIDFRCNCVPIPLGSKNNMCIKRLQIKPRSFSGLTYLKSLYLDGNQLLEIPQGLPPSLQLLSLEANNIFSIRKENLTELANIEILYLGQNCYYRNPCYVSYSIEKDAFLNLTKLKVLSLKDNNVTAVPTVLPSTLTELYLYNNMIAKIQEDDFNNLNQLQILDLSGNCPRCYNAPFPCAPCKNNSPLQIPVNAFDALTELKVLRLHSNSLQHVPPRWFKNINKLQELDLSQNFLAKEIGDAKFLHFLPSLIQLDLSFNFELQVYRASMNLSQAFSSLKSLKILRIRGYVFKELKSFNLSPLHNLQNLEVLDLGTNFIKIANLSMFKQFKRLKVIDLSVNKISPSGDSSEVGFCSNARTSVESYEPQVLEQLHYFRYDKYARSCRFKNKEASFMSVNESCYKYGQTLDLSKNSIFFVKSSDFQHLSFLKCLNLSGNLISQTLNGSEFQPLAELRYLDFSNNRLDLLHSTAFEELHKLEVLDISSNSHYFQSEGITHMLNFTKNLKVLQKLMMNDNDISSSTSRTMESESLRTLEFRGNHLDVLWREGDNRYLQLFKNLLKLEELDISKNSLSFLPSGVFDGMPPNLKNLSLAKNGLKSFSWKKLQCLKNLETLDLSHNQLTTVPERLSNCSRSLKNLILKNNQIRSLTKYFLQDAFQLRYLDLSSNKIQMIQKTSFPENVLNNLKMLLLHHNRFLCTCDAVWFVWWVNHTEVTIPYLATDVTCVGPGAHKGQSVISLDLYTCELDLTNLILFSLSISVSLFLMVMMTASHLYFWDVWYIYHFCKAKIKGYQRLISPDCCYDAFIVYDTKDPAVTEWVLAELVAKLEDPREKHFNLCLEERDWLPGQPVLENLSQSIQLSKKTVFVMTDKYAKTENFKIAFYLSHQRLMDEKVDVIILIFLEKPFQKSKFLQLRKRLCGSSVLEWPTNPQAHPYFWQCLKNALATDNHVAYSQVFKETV
Protocol: (1) HEK/TLR7Activation Assay: The same compounds were tested in the same way as the primary assay with the following differences. The plasmid used to transfect the HEK cell line encoded for human TLR7 instead of TLR9, and R848 was used to stimulate the cells instead of Oligo CpG 2006.

[2] = system: dissociated mouse splenocytes; assay: Spleen CellTiter-Glo viability assay; settings: Splenocyte, 72 hours, viability (ATP)
Protocol: (3) Spleen CT Glo Assay: To determine if compounds had adverse effects on living cells, dissociated mouse splenocytes were incubated with some of the compounds for 72 hours. At the end of the incubation Celliter-Glo™ reagent (Promega Corporation, Madison, Wis.) was added and luminescence was read per manufacturer's instructions. This reagent measures ATP as an indication of cell metabolism. Dead cells will not produce signal. IC50 is defined as the concentration of compound that suppresses viability to 50% of that observed in the absence of compound. The few compounds that measurably affected viability did so at concentrations far above those that affected cytokine release in response to TLR9 stimulation.

[3] = read-out: IC50 in the primary HEK/TLR9 assay
[4] = HEK293 transfected with human TLR9 and NF-kB luciferase, compound 30 min before Oligo CpG 2006, overnight, read-out: HEK/TLR9 IC50

Row | Structure (SMILES) | IC50 [1] | IC50 (human TLR9; [3]) | IC50 (human TLR7) | IC50 (human TLR9; [4]) | IC50 [2]
1 | c1cc(-c2nc3ccc(OC4CCNC4)cc3o2)ccc1OC1CCNC1 (stereo not drawn) [Comparator, reference compound] | 1020 nM | 160 nM | 2690 nM | – | –
2 | CN(C)CCOc1ccc(-c2nc3ccc(OCCN(C)C)cc3o2)cc1 [Compound 1] | 290 nM | 60 nM | 7800 nM | 31 nM | –
3 | CN(C)CCCCCOc1ccc(-c2nc3ccc(OCCCCCN(C)C)cc3o2)cc1 [Compound 3] | – | – | 1400 nM | 23 nM | –
4 | CN(C)CCCOc1ccc2nc(-c3ccccc3OCCCN(C)C)oc2c1 [Compound 4] | – | – | 1800 nM | 12 nM | –
5 | CN(C)CCCOc1cccc(-c2nc3ccc(OCCCN(C)C)cc3o2)c1 [Compound 5] | – | – | 2000 nM | 11 nM | –
6 | O[C@H]1CC[C@H](NCCCOc2ccc(-c3nc4ccc(OCCCN[C@H]5CC[C@H](O)CC5)cc4o3)cc2)CC1 [Compound 6] | – | – | 8410 nM | 20.2 nM | –
7 | COCCNCCCOc1ccc(-c2nc3ccc(OCCCNCCOC)cc3o2)cc1 [Compound 7] | – | – | 1310 nM | 23.3 nM | > 10 µM
8 | c1ccc(CNCCCOc2ccc(-c3nc4ccc(OCCCNCc5ccccn5)cc4o3)cc2)nc1 [Compound 8] | – | – | 1230 nM | 19.7 nM | 7.82 µM
9 | CN(C)CCCNCCCOc1ccc(-c2nc3ccc(OCCCNCCCN(C)C)cc3o2)cc1 [Compound 9] | – | – | 9050 nM | 120 nM | –
10 | CC(C)(CN1CCOCC1)NCCCOc1ccc(-c2nc3ccc(OCCCNC(C)(C)CN4CCOCC4)cc3o2)cc1 [Compound 10] | 26 nM | – | 350 nM | 15.3 nM | 9.8 µM
11 | CCOCCN1CCN(CCCOc2ccc(-c3nc4ccc(OCCCN5CCN(CCOCC)CC5)cc4o3)cc2)CC1 [Compound 15] | – | – | 2240 nM | 23.2 nM | > 10 µM
12 | CN(C)[C@H]1CCN(CCCOc2ccc(-c3nc4ccc(OCCCN5CC[C@H](N(C)C)C5)cc4o3)cc2)C1 [Compound 17] | 6 nM | – | 170 nM | 5.3 nM | > 10 µM
13 | COCCN(C)CCCOc1ccc(-c2nc3ccc(OCCCN(C)CCOC)cc3o2)cc1 [Compound 18] | – | – | 1400 nM | 19.2 nM | 9.9 µM
14 | c1cc(N2CCN(CCCOc3ccc(-c4nc5ccc(OCCCN6CCN(c7ccncc7)CC6)cc5o4)cc3)CC2)ccn1 [Compound 19] | – | – | 1100 nM | 27.6 nM | 10 µM
15 | CCN(C)CCCOc1ccc(-c2nc3ccc(OCCCN(C)CC)cc3o2)cc1 [Compound 21] | – | – | 1240 nM | 13.3 nM | 9.58 µM
16 | c1cc(-c2nc3ccc(OCCCN4CCC[C@H]4CN4CCCC4)cc3o2)ccc1OCCCN1CCC[C@H]1CN1CCCC1 [Compound 24] | 8 nM | – | 600 nM | 6.4 nM | > 10 µM
17 | COC[C@@H]1CCCN1CCCOc1ccc(-c2nc3ccc(OCCCN4CCC[C@H]4COC)cc3o2)cc1 [Compound 25] | 48 nM | – | – | 18.2 nM | > 10 µM
18 | C1=CCN(CCCOc2ccc(-c3nc4ccc(OCCCN5CC=CCC5)cc4o3)cc2)CC1 [Compound 28] | – | – | 1550 nM | 12.5 nM | > 10 µM
19 | CCCN(C)CCCOc1ccc(-c2nc3ccc(OCCCN(C)CCC)cc3o2)cc1 [Compound 29] | 42 nM | – | 780 nM | 19.3 nM | 10.4 µM
20 | CCN(CC)CCN(CC)CCCOc1ccc(-c2nc3ccc(OCCCN(CC)CCN(CC)CC)cc3o2)cc1 [Compound 32] | 10 nM | – | 580 nM | 9.6 nM | > 10 µM
21 | CCNCCCOc1ccc(-c2nc3ccc(OCCCNCC)cc3o2)cc1 [Compound 33] | – | – | 8520 nM | 100 nM | –
22 | CN(C)CCOCCN(C)CCCOc1ccc(-c2nc3ccc(OCCCN(C)CCOCCN(C)C)cc3o2)cc1 [Compound 36] | – | – | > 2500 nM | 38 nM | –
23 | CN(C)CCCOCCCN(C)CCCOc1ccc(-c2nc3ccc(OCCCN(C)CCCOCCCN(C)C)cc3o2)cc1 [Compound 37] | – | – | > 2500 nM | 30 nM | –
24 | CN(C)CCCCN(C)CCCOc1ccc(-c2nc3ccc(OCCCN(C)CCCCN(C)C)cc3o2)cc1 [Compound 38] | – | – | > 2500 nM | 34 nM | –
